Data on 1 molecule can be found in patent US9474759B2 (priority 2011, dated 2016).

Structures are written as SMILES.

Data set [1] deals with Norwalk virus (HG23 cells). As to the kind of experiment: microbe, parasite or virus in culture. In kind it is cell-based. The settings on record: HG23, read-out: Inhibition [ED50 (μM)] against various viruses: Calicivirus, HG23 cells.
The subject of a further data set is MNV-1. As to the kind of experiment: Cell-based screening, MNV-1 in RAW267.4 cells (Example 2). Details: species or system murine norovirus. The settings on record: Norwalk virus; RAW267.4 cells; read-out: Inhibition [ED50 (μM)] against various viruses: Calicivirus, MNV-1. Here is the method: (§1) 3. Cell-based screening of inhibitor. The effects of each inhibitor on the viral replication were examined. The list of viruses and corresponding cell lines are listed above in Table 2. Briefly, confluent cells were inoculated with virus at a MOI of 5 or 0.05 for 1 hr, and medium was replaced with medium containing mock-medium or each compound (up to 100 μM). The virus infected cells were further incubated for up to 96 hrs, and the replication of virus was measured by TCID50 assay with the 10-fold dilution of each sample used for virus titration (Reed and Muench, 1938). In some viruses, the virus protein and genome expression levels were detected by Western blot analysis and real-time qRT-PCR, respectively, as described below. The IC50s of the compounds were calculated.

For another data set, the system named is TGEV. In words: Cell-based screening, TGEV in ST cells (Example 2). Details: species or system transmissible gastroenteritis virus. The settings on record: Alphacoronavirus 1; ST cells; read-out: Inhibition [ED50 (μM)] against various viruses: Coronavirus, TGEV. Here is the method: as §1
In another data set the test system is FIPV. In words: Cell-based screening, FIPV in CRFK cells (Example 2). Details: species or system feline infectious peritonitis virus. As to conditions: Alphacoronavirus 1; CRFK cells; read-out: Inhibition [ED50 (μM)] against various viruses: Coronavirus, FIPV. Here is the method:
as §1

Data set [2] deals with recombinant 3C or 3CL of MD145 (Norovirus Hu/GII.4/MD145-12/1987/US (Maryland virus), UniProt Q8V0P3). In words: FRET protease assay, MD145 3CL (Example 2). In kind it is biochemical, norovirus strain MD145.
recombinant 3C or 3CL of MD145, sequence (Q8V0P3 entry or part of it): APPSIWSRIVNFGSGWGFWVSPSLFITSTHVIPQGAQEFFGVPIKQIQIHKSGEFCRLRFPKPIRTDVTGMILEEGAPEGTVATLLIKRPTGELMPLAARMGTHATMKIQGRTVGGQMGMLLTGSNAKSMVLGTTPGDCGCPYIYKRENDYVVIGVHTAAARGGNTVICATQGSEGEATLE
For a further data set, the target named is TGEV 3CL protease (Porcine transmissible gastroenteritis coronavirus, UniProt P0C6Y5). As to the kind of experiment: FRET-based protease assay, TGEV 3CL protease (Example 5). In kind it is biochemical, TGEV Miller strain. An excerpt:
The 3CL proteases are highly conserved among all coronaviruses, and feline coronavirus 3CL protease is closely related TGEV 3CL protease. Therefore we cloned and expressed the TGEV 3CL protease for the FRET assay. The cDNA encoding the full length of 3CL protease of TGEV Miller strain was amplified with RT-PCR as previously described. The primers contained the nucleotide sequence of the 3CL protease for cloning as well as the nucleotides for 6 Histidine in the forward primer. The amplified product was subcloned to pET-28a(+) vector (GenScript, Piscataway, N.J.). The expression and purification of the 3CL protease was performed with a standard method described previously by our lab (Chang et al., 2012b; Takahashi et al., 2012; Tiew et al., 2011).
Our protease inhibitor compounds and commercial cathepsin inhibitors CA074-Me and E64d were prepared in DMSO as stock solutions (10 mM), and further diluted in assay buffer consisting of 20 mM HEPES, 0.4 mM EDTA, 30% glycerol, 120 mM NaCl, and 4 mM DTT at pH 6. […] TGEV 3CL protease at a final concentration of 0.1˜0.2 μM and the substrate (Dabcyl-[…]-Edans; SEQ ID NO:2) at 10 μM were used for the studies. The substrate was purchased from Bachem Americas, Inc (Torrance, Calif.). Compounds at various concentrations (0˜50 μM) were pre-incubated with TGEV 3CL protease in 25 μl for 30 min at 37° C., and the same volume of substrate was added to a 96-well black plate. The mixtures were then incubated at 37° C. for 60 min, and fluorescence readings were obtained on a microplate reader at 360 nm excitation and 480 nm emission wavelengths. The relative fluorescence units (RFU) were calculated by subtracting background (substrate control well without protease) from the fluorescence readings. The dose-dependent FRET inhibition curves were fitted with variable slope (four parameters) using GraphPad Prism software (La Jolla, Calif.) in order to determine the compound concentration that gives a half-maximum response (IC50).

The subject of the next data set is FIPV-1146. As to the kind of experiment: Combination treatment of CA074-Me and GC373 on FIPV-1146 replication, MacSynergy II. In kind it is cell-based, feline coronavirus. As to conditions: GC373 alone at 0.05 μM, FIPV-infected CRFK cells. Here is the method:
The CRFK cells were incubated with GC373 (0.02˜0.2 μM), CA074-Me (0.5˜5 μM), or the combinations of GC373 (0.02˜0.2 μM) and CA074-Me (0.5˜5 μM) for 1 hr at 37° C. prior to inoculation of FIPV-1146 at an MOI of 0.05. After 24 hrs of incubation, virus replication was assessed with virus titration using the TCID50 method. Drug-drug interactions were analyzed by the three-dimensional model of Prichard and Shipman, using the MacSynergy II software at 95% confidence limits. Theoretical additive interactions were calculated from the dose-response curve for each compound individually, and the calculated additive surface was subtracted from the experimentally determined dose-response surface to give regions of synergistic or antagonistic interactions. The resulting surface appears as horizontal plane at 0% of synergy if the interactions of two compounds are additive. Any peak above or below this plane indicates synergy or antagonism, respectively.

Data set [3] concerns the target TGEV 3CLpro (full-length, 6 His, recombinant) (Porcine transmissible gastroenteritis coronavirus strain Purdue, UniProt P0C6V2). In words: biochemical. Details: species or system transmissible gastroenteritis virus (strain Miller).
Data set [4] can be described thus: PK and oral bioavailability studies in rats. The settings on record: 20 mg/Kg (body weight), IV or PO.

TGEV 3CL protease, sequence (P0C6Y5 2879-3180): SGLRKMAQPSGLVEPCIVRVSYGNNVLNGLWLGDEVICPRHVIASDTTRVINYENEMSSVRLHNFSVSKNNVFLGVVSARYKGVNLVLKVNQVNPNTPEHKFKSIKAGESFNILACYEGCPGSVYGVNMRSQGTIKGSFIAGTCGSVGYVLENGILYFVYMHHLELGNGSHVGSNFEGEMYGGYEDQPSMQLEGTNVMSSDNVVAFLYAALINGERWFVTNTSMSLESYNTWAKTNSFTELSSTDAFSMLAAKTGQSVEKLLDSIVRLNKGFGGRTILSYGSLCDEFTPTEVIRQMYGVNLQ
TGEV 3CLpro (full-length, 6 His, recombinant), sequence (P0C6V2 2879-3180): as the sequence (P0C6Y5 2879-3180) above

Consider `CC(C)C[C@H](NC(=O)OCc1ccccc1)C(=O)N[C@H](C=O)C[C@@H]1CCNC1=O` [GC373], for which the EC50 in [1] amounted to 2.1 µM; with MNV-1, 6.5 µM; in the data set on TGEV, 0.3 µM; in the data set on FIPV, 0.3 µM. Moreover, the IC50 came out at 20.3 µM in data set [2]; 0.98 µM on TGEV 3CL protease (TGEV 3CL protease, read-out: IC50 against 3CL protease in the FRET assay); 0.99 ± 0.12 µM in data set [3]. The “inhibition of the activity of TGEV 3CL protease (in words)” value on TGEV 3CL protease (compound at 50 μM final concentration) is on record as “remarkably inhibited”. The “reduction of virus titers” value with FIPV-1146 stood at 0.5 log10. For the same molecule, in [4], the “oral bioavailability, % F” value was 3 % F.
